Tests used:
Experiment in all cases: KINOMEscan competition binding
Details in all cases: compound 10.0 µM
CPK1 (P.falciparum) = test system: CPK1 (P.falciparum)
[1] = test system: FGFR3 (human), P22607 [G697C]
LIMK1 (human) = LIMK1 (human) (UniProt P53667)
CRK2 (P.falciparum) = CRK2 (P.falciparum) (UniProt P61075)
MAP2K1 (human) = MAP2K1 (human) (UniProt Q02750)
CDK17 (human) = CDK17 (human) (UniProt Q00537)
CSK (human) = CSK (human) (UniProt P41240)
STK17B (human) = STK17B (human) (UniProt O94768)
EPHB4 (human) = EPHB4 (human) (UniProt P54760)
TEC (human) = TEC (human) (UniProt P42680)
EPHA4 (human) = EPHA4 (human) (UniProt P54764)
IKBKB (human) = IKBKB (human) (UniProt O14920)
SRPK2 (human) = SRPK2 (human) (UniProt P78362)
PDGFRB (human) = PDGFRB (human) (UniProt P09619)
CDK9 (human) = CDK9 (human) (UniProt P50750)
SGK3 (human) = SGK3 (human) (UniProt Q96BR1)
NTRK2 (human) = NTRK2 (human) (UniProt Q16620)
BMPR2 (human) = BMPR2 (human) (UniProt Q13873)
CDK8 (human) = CDK8 (human) (UniProt P49336)
PRKACB (human) = PRKACB (human) (UniProt P22694)
IGF1R (human) = IGF1R (human) (UniProt P08069)
PRKCI (human) = PRKCI (human) (UniProt P41743)
SGK110 (human) = SGK110 (human) (UniProt P0C264)
EPHA1 (human) = EPHA1 (human) (UniProt P21709)
PLK4 (human) = PLK4 (human) (UniProt O00444)
ADCK4 (human) = ADCK4 (human) (UniProt Q96D53)
CDKL1 (human) = CDKL1 (human) (UniProt Q00532)
CDK13 (human) = CDK13 (human) (UniProt Q14004)
ITK (human) = ITK (human) (UniProt Q08881)
PAK1 (human) = PAK1 (human) (UniProt Q13153)
EPHA2 (human) = EPHA2 (human) (UniProt P29317)
CDC42BPG (human) = CDC42BPG (human) (UniProt Q6DT37)
PIM3 (human) = PIM3 (human) (UniProt Q86V86)
STK3 (human) = STK3 (human) (UniProt Q13188)
CDK18 (human) = CDK18 (human) (UniProt Q07002)
PIM2 (human) = PIM2 (human) (UniProt Q9P1W9)
FGFR3 (human) = FGFR3 (human) (UniProt P22607)
STK33 (human) = STK33 (human) (UniProt Q9BYT3)
ABL2 (human) = ABL2 (human) (UniProt P42684)
FES (human) = FES (human) (UniProt P07332)
KDR (human) = KDR (human) (UniProt P35968)

Sequence of STK33 (human) (Q9BYT3 whole entry, looked up): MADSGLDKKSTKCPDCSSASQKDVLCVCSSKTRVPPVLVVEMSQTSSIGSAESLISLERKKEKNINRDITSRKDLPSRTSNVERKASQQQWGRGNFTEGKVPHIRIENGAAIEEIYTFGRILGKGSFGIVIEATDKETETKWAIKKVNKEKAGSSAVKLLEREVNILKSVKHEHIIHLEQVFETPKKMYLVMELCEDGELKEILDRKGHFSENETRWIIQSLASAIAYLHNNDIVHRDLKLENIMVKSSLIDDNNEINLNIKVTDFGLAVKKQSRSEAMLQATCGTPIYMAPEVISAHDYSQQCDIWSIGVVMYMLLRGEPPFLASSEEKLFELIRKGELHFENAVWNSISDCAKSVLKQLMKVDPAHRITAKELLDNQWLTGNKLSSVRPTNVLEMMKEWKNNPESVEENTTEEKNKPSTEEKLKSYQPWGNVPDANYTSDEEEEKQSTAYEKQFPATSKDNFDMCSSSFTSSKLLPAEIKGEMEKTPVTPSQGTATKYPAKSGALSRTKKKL
Sequence of CDK17 (human) (Q00537 whole entry, looked up): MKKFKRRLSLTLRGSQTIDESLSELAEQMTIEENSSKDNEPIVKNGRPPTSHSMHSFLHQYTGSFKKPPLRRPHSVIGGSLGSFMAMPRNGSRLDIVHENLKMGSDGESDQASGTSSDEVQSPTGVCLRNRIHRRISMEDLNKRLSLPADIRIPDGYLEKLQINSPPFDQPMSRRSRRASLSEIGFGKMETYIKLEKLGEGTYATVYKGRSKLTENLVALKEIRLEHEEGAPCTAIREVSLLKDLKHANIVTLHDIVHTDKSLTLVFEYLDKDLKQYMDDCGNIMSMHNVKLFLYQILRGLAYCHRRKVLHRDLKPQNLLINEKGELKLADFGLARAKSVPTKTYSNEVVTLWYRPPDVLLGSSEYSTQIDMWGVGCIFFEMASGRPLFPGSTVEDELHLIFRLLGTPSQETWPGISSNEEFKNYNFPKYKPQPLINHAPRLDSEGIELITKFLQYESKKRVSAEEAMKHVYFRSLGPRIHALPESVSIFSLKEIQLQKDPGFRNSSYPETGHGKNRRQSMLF
Sequence of PRKCI (human) (P41743 whole entry, looked up): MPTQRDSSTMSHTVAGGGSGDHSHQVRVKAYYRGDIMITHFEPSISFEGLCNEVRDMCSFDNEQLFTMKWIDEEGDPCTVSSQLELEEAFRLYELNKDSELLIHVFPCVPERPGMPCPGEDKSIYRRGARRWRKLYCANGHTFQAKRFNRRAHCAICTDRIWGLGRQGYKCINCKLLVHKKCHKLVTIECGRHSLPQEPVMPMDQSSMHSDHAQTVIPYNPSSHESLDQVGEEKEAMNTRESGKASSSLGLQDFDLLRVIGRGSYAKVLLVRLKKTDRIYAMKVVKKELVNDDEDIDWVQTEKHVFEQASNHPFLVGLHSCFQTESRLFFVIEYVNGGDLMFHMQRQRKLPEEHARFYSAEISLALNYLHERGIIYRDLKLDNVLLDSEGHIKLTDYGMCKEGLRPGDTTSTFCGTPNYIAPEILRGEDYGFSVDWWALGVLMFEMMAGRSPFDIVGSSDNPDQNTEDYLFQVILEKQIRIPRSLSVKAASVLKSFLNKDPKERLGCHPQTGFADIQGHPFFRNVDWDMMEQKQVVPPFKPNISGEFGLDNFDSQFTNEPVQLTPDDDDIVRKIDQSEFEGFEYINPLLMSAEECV
Sequence of IGF1R (human) (P08069 whole entry, looked up): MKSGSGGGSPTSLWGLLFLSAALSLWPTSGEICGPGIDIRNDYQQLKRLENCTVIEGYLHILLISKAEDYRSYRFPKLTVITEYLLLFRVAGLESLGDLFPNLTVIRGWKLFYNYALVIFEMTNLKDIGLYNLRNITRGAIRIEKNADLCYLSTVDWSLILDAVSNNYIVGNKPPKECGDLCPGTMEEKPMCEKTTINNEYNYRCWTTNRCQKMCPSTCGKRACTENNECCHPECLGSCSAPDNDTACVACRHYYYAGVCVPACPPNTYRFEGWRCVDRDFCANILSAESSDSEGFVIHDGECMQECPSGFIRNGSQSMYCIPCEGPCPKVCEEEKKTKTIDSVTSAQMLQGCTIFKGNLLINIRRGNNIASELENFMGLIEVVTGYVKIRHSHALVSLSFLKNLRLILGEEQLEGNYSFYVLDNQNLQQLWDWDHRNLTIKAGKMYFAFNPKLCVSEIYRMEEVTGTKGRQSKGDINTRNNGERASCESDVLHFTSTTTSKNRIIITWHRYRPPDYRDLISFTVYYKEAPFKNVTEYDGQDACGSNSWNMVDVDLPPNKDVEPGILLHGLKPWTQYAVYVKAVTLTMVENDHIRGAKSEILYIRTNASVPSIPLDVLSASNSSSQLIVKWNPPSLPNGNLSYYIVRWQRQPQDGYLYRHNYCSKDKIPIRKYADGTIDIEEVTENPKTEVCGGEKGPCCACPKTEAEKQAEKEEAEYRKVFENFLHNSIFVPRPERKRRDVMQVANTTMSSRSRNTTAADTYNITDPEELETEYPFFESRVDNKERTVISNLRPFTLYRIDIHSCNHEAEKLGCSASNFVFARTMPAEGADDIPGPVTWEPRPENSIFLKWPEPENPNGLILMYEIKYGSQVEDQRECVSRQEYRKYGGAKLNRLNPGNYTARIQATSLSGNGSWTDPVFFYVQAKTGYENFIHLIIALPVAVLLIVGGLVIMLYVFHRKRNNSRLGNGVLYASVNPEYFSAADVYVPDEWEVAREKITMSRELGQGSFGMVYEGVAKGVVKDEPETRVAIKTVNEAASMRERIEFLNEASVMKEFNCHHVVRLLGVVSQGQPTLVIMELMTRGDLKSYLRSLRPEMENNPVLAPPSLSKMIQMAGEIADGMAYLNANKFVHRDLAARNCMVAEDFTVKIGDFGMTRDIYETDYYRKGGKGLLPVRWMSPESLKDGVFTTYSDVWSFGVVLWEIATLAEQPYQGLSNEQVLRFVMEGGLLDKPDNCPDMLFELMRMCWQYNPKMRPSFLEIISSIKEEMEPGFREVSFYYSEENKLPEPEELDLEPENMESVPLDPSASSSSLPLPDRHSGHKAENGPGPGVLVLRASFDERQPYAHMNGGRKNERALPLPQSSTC
Sequence of EPHA4 (human) (P54764 whole entry, looked up): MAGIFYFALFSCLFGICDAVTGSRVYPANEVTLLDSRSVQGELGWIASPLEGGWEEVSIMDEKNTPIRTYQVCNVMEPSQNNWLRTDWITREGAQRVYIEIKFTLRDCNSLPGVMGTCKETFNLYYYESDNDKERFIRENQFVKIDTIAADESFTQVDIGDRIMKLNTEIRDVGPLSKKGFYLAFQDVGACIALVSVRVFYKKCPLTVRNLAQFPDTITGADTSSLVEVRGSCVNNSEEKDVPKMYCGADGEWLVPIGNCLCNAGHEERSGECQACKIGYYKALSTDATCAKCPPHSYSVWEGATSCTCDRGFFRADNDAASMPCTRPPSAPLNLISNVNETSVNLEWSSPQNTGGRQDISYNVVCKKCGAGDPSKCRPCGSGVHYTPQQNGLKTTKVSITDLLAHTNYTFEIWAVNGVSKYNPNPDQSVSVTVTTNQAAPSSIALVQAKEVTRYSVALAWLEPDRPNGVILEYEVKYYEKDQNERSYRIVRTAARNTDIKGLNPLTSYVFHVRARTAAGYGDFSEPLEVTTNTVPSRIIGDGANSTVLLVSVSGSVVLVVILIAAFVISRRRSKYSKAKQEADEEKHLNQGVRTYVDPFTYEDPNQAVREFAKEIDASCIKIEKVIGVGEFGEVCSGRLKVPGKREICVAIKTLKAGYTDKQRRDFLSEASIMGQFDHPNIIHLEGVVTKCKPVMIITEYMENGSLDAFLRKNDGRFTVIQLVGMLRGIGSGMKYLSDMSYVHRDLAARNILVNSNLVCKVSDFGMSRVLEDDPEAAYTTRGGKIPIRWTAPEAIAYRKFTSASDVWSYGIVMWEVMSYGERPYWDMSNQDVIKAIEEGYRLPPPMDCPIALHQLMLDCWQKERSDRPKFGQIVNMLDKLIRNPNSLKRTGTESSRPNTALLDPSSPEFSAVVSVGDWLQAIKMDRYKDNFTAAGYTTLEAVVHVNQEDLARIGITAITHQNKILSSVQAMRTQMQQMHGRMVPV
Sequence of CDK18 (human) (Q07002 whole entry, looked up): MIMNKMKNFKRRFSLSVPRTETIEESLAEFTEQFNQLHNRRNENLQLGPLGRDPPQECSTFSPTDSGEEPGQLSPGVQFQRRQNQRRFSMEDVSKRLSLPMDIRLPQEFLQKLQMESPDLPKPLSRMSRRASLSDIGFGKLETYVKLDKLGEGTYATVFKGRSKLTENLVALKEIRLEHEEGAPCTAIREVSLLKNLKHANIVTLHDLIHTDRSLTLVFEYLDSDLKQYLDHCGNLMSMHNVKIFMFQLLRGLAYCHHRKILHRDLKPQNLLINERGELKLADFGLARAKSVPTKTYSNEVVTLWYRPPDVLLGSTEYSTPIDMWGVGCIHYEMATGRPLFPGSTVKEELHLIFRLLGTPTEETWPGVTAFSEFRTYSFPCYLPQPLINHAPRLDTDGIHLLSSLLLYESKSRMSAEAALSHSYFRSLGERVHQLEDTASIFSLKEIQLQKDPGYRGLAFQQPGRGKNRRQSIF
Sequence of CDKL1 (human) (Q00532 whole entry, looked up): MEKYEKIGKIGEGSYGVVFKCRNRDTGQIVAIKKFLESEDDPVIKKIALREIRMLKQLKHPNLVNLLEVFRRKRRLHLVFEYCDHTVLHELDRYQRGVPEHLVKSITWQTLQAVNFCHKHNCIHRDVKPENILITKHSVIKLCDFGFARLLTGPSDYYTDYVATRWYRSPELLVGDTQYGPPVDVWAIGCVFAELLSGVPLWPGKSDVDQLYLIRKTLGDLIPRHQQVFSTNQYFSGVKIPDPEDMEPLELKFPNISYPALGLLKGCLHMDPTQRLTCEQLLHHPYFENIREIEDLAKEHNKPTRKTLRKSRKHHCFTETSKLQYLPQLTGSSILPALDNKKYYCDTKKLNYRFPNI

SMILES | kinase still bound, per cent of control (CPK1 (P.falciparum)) [%] | kinase still bound, per cent of control [1] [%] | kinase still bound, per cent of control (LIMK1 (human)) [%] | kinase still bound, per cent of control (CRK2 (P.falciparum)) [%] | kinase still bound, per cent of control (MAP2K1 (human)) [%] | kinase still bound, per cent of control (CDK17 (human)) [%] | kinase still bound, per cent of control (CSK (human)) [%] | kinase still bound, per cent of control (STK17B (human)) [%] | kinase still bound, per cent of control (EPHB4 (human)) [%] | kinase still bound, per cent of control (TEC (human)) [%] | kinase still bound, per cent of control (EPHA4 (human)) [%] | kinase still bound, per cent of control (IKBKB (human)) [%] | kinase still bound, per cent of control (SRPK2 (human)) [%] | kinase still bound, per cent of control (PDGFRB (human)) [%] | kinase still bound, per cent of control (CDK9 (human)) [%] | kinase still bound, per cent of control (SGK3 (human)) [%] | kinase still bound, per cent of control (NTRK2 (human)) [%] | kinase still bound, per cent of control (CDK8 (human)) [%] | kinase still bound, per cent of control (PRKACB (human)) [%] | kinase still bound, per cent of control (IGF1R (human)) [%] | other results
CCCS(=O)(=O)Nc1ccc(F)c(C(=O)c2c[nH]c3ncc(Cl)cc23)c1F | 0 | 100 | 46 | 91 | 0.8 | 56 | 2.7 | 68 | 100 | 100 | 100 | 75 | 100 | 0 | 86 | 49 | 82 | 2.2 | 100 | 91 | kinase still bound, per cent of control (BMPR2 (human)): 67%; kinase still bound, per cent of control (PRKCI (human)): 100%; kinase still bound, per cent of control (SGK110 (human)): 100%; kinase still bound, per cent of control (EPHA1 (human)): 100%; kinase still bound, per cent of control (PLK4 (human)): 27%; kinase still bound, per cent of control (ADCK4 (human)): 100%; kinase still bound, per cent of control (CDKL1 (human)): 93%; kinase still bound, per cent of control (CDK13 (human)): 100%; kinase still bound, per cent of control (ITK (human)): 99%; kinase still bound, per cent of control (PAK1 (human)): 11%; kinase still bound, per cent of control (EPHA2 (human)): 100%; kinase still bound, per cent of control (CDC42BPG (human)): 74%; kinase still bound, per cent of control (PIM3 (human)): 65%; kinase still bound, per cent of control (STK3 (human)): 21%; kinase still bound, per cent of control (CDK18 (human)): 73%; kinase still bound, per cent of control (PIM2 (human)): 80%; kinase still bound, per cent of control (FGFR3 (human)): 71%; kinase still bound, per cent of control (STK33 (human)): 85%; kinase still bound, per cent of control (ABL2 (human)): 36%
CCN(CCO)CCCOc1ccc2c(Nc3cc(CC(=O)Nc4cccc(F)c4)[nH]n3)ncnc2c1 | 63 | 100 | 100 | 100 | 32 | 73 | 24 | 93 | 100 | 78 | 92 | 91 | 92 | 0 | 82 | 100 | 8.2 | 75 | 100 | 100 | kinase still bound, per cent of control (FES (human)): 100%; kinase still bound, per cent of control (PRKCI (human)): 96%; kinase still bound, per cent of control (SGK110 (human)): 100%; kinase still bound, per cent of control (EPHA1 (human)): 100%; kinase still bound, per cent of control (ADCK4 (human)): 83%; kinase still bound, per cent of control (CDKL1 (human)): 84%; kinase still bound, per cent of control (CDK13 (human)): 66%; kinase still bound, per cent of control (ITK (human)): 96%; kinase still bound, per cent of control (PAK1 (human)): 100%; kinase still bound, per cent of control (EPHA2 (human)): 76%; kinase still bound, per cent of control (CDC42BPG (human)): 100%; kinase still bound, per cent of control (PIM3 (human)): 100%; kinase still bound, per cent of control (STK3 (human)): 100%; kinase still bound, per cent of control (KDR (human)): 2.7%; kinase still bound, per cent of control (CDK18 (human)): 62%; kinase still bound, per cent of control (PIM2 (human)): 100%; kinase still bound, per cent of control (FGFR3 (human)): 92%; kinase still bound, per cent of control (STK33 (human)): 51%
